Laboratory results: US10183944B2 (Asana Biosciences, LLC, priority 2011, dated 2019)
Counter-ions that a name gives are not always drawn.

target: Syk (356-635 amino acids) catalytic domain (Homo sapiens (Human), UniProt P43405); assay: Inhibition of enzymatic Syk kinase activity (radiometric); format: biochemical; details: read-out: IC50 Syk
Source text: The objective of this assay was to examine by radiometric method the ability of compounds to inhibit Syk kinase enzyme. Syk is capable of phosphorylating substrates such as VAV, LAT, SLP-76, which in turn activate MAPK, PLCγ signaling pathways. […] This in vitro assay tests the ability of syk to phosphorylate a substrate peptide in the presence of ATP. By using a radio-labeled form of ATP, it is possible to measure the amount of phosphorylation of the substrate. The enzyme transfers a radio-labeled phosphate group from γ32 P labeled ATP to pG4T. Briefly the enzyme was incubated with substrate, radio-labeled & cold ATP and substrate in buffer with or without compounds. At the end of the reaction, the reaction mixture was transferred on to a Multiscreen filter plate and unreacted γ^32P ATP was washed off. The filter plate was dried and the radioactivity was measured on a scintillation counter to estimate the incorporated radioactivity on the substrate. The percent inhibition of activity of the enzyme was calculated by comparing counts in the presence and absence of compounds. […] 2.5 μL of 10% DMSO or compound in 10% DMSO was added to the wells in a 96 well V-bottom plate. Optimized concentration of in-house Syk enzyme (different batches of Syk (356-635) kinase domain) were used at optimized concentrations) ranging from 0.035 ng to 7.5 ng/reaction diluted in assay buffer was added to a total volume of 12.5 μL). Compound and protein were incubated for 30 minutes at room temperature on a plate shaker. Ten μL of a substrate mix containing 100 μM ATP (0.25 μL), γ-P^32-ATP (0.1 μL; 10 μCi/μL), pG4T (0.25 μL; 10 mg/mL) and 1× assay buffer (9.4 μL) was added to all the wells. Samples were incubated at 30° C. for 10 minutes after mixing. The reaction was stopped by the addition of 8N HCl (13 μL) containing 100 mM ATP. Thirty μL of sample was transferred to the center of a 2×2 cm^2 Whatman® P81 chromatography paper. After allowing the sample to dry for one minute, the assay squares were washed 3 times for 5 minutes each in ortho-phosphoric acid (0.5%) and once in acetone. Assay squares were dried for 15 minutes in a 30° C. oven and transferred to 96 well optiplate. Microscint-O® reagent (100 μL, Perkin Elmer) was added to each well, the plate was sealed with Topseal®-A microplates and incubated for 10 minutes at room temperature at very low speed on rocker and the plate was read in the Topcount® NXL instrument. The following calculations were made: Fold induction=radioactivity counts (uncorrected values) in positive control/substrate control.

| SMILES | IC50 [nM] |
| --- | --- |
| O=C(c1ccc(Nc2nc(-c3ccccc3)nc3cn[nH]c(=O)c23)cc1)N1CCOCC1 [Example 9, 4-(4-(morpholine-4-carbonyl)phenylamino)-2-phenylpyrimido[4,5-d]pyridazin-5(6H)-one] | > 100 |
| NCC(=O)N1CCN(c2ccc(Nc3nc(-c4ccccc4)nc4cn[nH]c(=O)c34)cc2)CC1 [Example 14, 4-(4-(4-(2-aminoacetyl)piperazin-1-yl)phenylamino)-2-phenylpyrimido[4,5-d]pyridazin-5(6H)-one] | < 10 |
| CN(C)CCN(C)C(=O)c1ccc(Nc2nc(-c3ccccc3)nc3cn[nH]c(=O)c23)cc1 [Example 15, N-(2-(dimethylamino)ethyl)-N-methyl-4-(5-oxo-2-phenyl-5,6-dihydropyrimido[4,5-d]pyridazin-4-ylamino)benzamide] | > 100 |
| O=C1CC2(CCN(c3ccc(Nc4nc(-c5ccccc5)nc5cn[nH]c(=O)c45)cc3)CC2)N1 [Example 16, 4-(4-(2-oxo-1,7-diazaspiro[3.5]nonan-7-yl)phenylamino)-2-phenylpyrimido[4,5-d]pyridazin-5(6H)-one] | > 100 |
| O=c1[nH]ncc2nc(-c3ccccc3)nc(Nc3ccc(N4CCC5(CC4)COC5)cc3)c12 [Example 17, 4-(4-(2-oxa-7-azaspiro[3.5]nonan-7-yl)phenylamino)-2-phenylpyrimido[4,5-d]pyridazin-5(6H)-one] | > 100 |
| CCOC(=O)C1CC12CCN(c1ccc(Nc3nc(-c4ccccc4)nc4cn[nH]c(=O)c34)cc1)CC2 (stereo not drawn) [Example 20, ethyl 6-(4-(5-oxo-2-phenyl-5,6-dihydropyrimido[4,5-d]pyridazin-4-ylamino)phenyl)-6-azaspiro[2.5]octane-1-carboxylate] | > 100 |
| O=C(O)C1CC12CCN(Cc1ccc(Nc3nc(-c4ccccc4)nc4cn[nH]c(=O)c34)cc1)CC2 (stereo not drawn) [Example 21, 6-(4-(5-oxo-2-phenyl-5,6-dihydropyrimido[4,5-d]pyridazin-4-ylamino)benzyl)-6-azaspiro[2.5]octane-1-carboxylic acid] | > 100 |
| COC(=O)c1ccc(-c2nc(Nc3ccc(N4CCOCC4)cc3)c3c(=O)[nH]ncc3n2)cc1 [Example 29, methyl 4-(4-(4-morpholinophenylamino)-5-oxo-5,6-dihydropyrimido[4,5-d]pyridazin-2-yl)benzoate] | > 100 |
| O=C(O)C1CC12CCN(c1ccc(Nc3nc(N4CCOCC4)nc4cn[nH]c(=O)c34)cc1)CC2 (stereo not drawn) [Example 42, 6-(4-((2-morpholino-5-oxo-5,6-dihydropyrimido[4,5-d]pyridazin-4-yl)amino)phenyl)-6-azaspiro[2.5]octane-1-carboxylic acid] | < 100 |
| O=c1[nH]ncc2nc(-c3ccccc3)nc(Nc3cnn(CCN4CCOCC4)c3)c12 [Example 58, 4-((1-(2-morpholinoethyl)-1H-pyrazol-4-yl)amino)-2-phenylpyrimido[4,5-d]pyridazin-5(6H)-one] | > 100 |
| COc1nc(Nc2ccc(CN3CCNCC3)cc2)c2c(=O)[nH]ncc2n1 [Example 61, 2-methoxy-4-((4-(piperazin-1-ylmethyl)phenyl)amino)pyrimido[4,5-d]pyridazin-5(6H)-one hydrochloride] | > 100 |
| O=c1[nH]ncc2nc(-c3ccccc3)nc(Nc3cnn(CCN4CCNCC4)c3)c12 [Example 63, 2-phenyl-4-((1-(2-(piperazin-1-yl)ethyl)-1H-pyrazol-4-yl)amino)pyrimido[4,5-d]pyridazin-5(6H)-one hydrochloride] | > 100 |
| CN1CCN(CCn2cc(Nc3nc(-c4ccccc4)nc4cn[nH]c(=O)c34)cn2)CC1 [Example 64, 4-((1-(2-(4-methylpiperazin-1-yl)ethyl)-1H-pyrazol-4-yl)amino)-2-phenylpyrimido[4,5-d]pyridazin-5(6H)-one] | > 100 |

Results, then the molecule that gave them:

| IC50 [nM] | SMILES |
| --- | --- |
| > 100 | CCN1CCN(CCn2cc(Nc3nc(-c4ccccc4)nc4cn[nH]c(=O)c34)cn2)CC1 [Example 65, 4-((1-(2-(4-ethylpiperazin-1-yl)ethyl)-1H-pyrazol-4-yl)amino)-2-phenylpyrimido[4,5-d]pyridazin-5(6H)-one] |
| > 100 | COc1cc(Nc2nc(N3CCCCCC3)nc3cn[nH]c(=O)c23)cc(OC)c1OC [Example 67, 2-(azepan-1-yl)-4-((3,4,5-trimethoxyphenyl)amino)pyrimido[4,5-d]pyridazin-5(6H)-one] |
| < 100 | N#CCN1CCN(c2nc(Nc3ccc(N4CCC5(CC4)CC5C(=O)O)cc3)c3c(=O)[nH]ncc3n2)CC1 (stereo not drawn) [Example 73, 6-(4-((2-(4-(cyanomethyl)piperazin-1-yl)-5-oxo-5,6-dihydropyrimido[4,5-d]pyridazin-4-yl)amino)phenyl)-6-azaspiro[2.5]octane-1-carboxylic acid] |
| > 100 | N#CC1CCN(c2nc(Nc3ccc(N4CCC5(CC4)CC5C(=O)O)cc3)c3c(=O)[nH]ncc3n2)CC1 (stereo not drawn) [Example 74, 6-(4-((2-(4-cyanopiperidin-1-yl)-5-oxo-5,6-dihydropyrimido[4,5-d]pyridazin-4-yl)amino)phenyl)-6-azaspiro[2.5]octane-1-carboxylic acid] |
| < 100 | N#CC1CCN(c2nc(Nc3ccc(N4CCC(CC(=O)O)CC4)cc3)c3c(=O)[nH]ncc3n2)CC1 [Example 75, 2-(1-(4-((2-(4-cyanopiperidin-1-yl)-5-oxo-5,6-dihydropyrimido[4,5-d]pyridazin-4-yl)amino)phenyl)piperidin-4-yl)acetic acid] |
| > 100 | N#CC1CCN(c2nc(Nc3ccc(CN4CCC(C(=O)O)CC4)cc3)c3c(=O)[nH]ncc3n2)CC1 [Example 76, 1-(4-((2-(4-cyanopiperidin-1-yl)-5-oxo-5,6-dihydropyrimido[4,5-d]pyrimido[4,5-d]pyridazin-4-yl)amino)benzyl)piperidine-4-carboxylic acid] |
| < 100 | N#CCC1CCN(c2nc(Nc3ccc(CN4CCC(C(=O)O)CC4)cc3)c3c(=O)[nH]ncc3n2)CC1 [Example 78, 1-(4-((2-(4-(cyanomethyl)piperidin-1-yl)-5-oxo-5,6-dihydropyrimido[4,5-d]pyridazin-4-yl)amino)benzyl)piperidine-4-carboxylic acid] |
| > 100 | N#CCC1CCN(c2ccc(Nc3nc(-c4ccccc4)nc4cn[nH]c(=O)c34)cc2)CC1 [Example 82, 2-(1-(4-((5-oxo-2-phenyl-5,6-dihydropyrimido[4,5-d]pyridazin-4-yl)amino)phenyl)piperidin-4-yl)acetonitrile] |
| < 100 | O=C(O)CC1CCN(c2ccc(Nc3nc(C4CCCCCC4)nc4cn[nH]c(=O)c34)cc2)CC1 [Example 90, 2-(1-(4-((2-cycloheptyl-5-oxo-5,6-dihydropyrimido[4,5-d]pyridazin-4-yl)amino)phenyl)piperidin-4-yl)acetic acid] |
| < 100 | O=c1[nH]ncc2nc(-c3ccccc3)nc(Nc3ccc(OCCN4CCOCC4)cc3)c12 [Example 94, 4-((4-(2-morpholinoethoxy)phenyl)amino)-2-phenylpyrimido[4,5-d]pyridazin-5(6H)-one] |
| > 100 | N#CCC1CCN(c2ccc(Nc3nc(N4CCCCCC4)nc4cn[nH]c(=O)c34)cn2)CC1 [Example 97, 2-(1-(5-((2-(azepan-1-yl)-5-oxo-5,6-dihydropyrimido[4,5-d]pyridazin-4-yl)amino)pyridin-2-yl)piperidin-4-yl) acetonitrile] |
